Values quoted from earlier work in US20070141147A1, “SEQUENTIAL RELEASE PHARMACEUTICAL FORMULATIONS” (Auriga Laboratories, Inc., priority 2005, published 2007).
Counter-ions that a name gives are not always drawn.

Assays:
[1] = water and alcohol
[2] = in vivo

For `CNCC(O)c1cccc(O)c1` (stereo in doubt) [Phenylephrine hydrochloride, (S)-3-hydroxy-[alpha][(methylamino)methylbenzenemethanol hydrochloride], the solubility [1] is listed as “freely soluble”.
For `COc1ccccc1OCC(O)CO` (stereo not drawn) [Guaifenesin, 3-(2-methoxyphenoxy)-1,2-propanediol], the solubility [1] is given as “soluble”.
For `C[N+]1(C)[C@@H]2C[C@@H](OC(=O)[C@H](CO)c3ccccc3)C[C@H]1[C@@H]1O[C@@H]12` [methscopolamine], the plasma half-life [2] is given as “relatively short”.
